Test results as given in ChEMBL document CHEMBL5338804 (J Med Chem, 2023).
≈ marks a conversion by molar mass, not a printed value.

Legend:
[1] = molecular target: Casein kinase I isoform alpha (Homo sapiens, UniProt P48729); experiment: Inhibition of CK1A1 (unknown origin)
[2] = molecular target: Interleukin-1 receptor-associated kinase 4 (Homo sapiens, UniProt Q9NWZ3); experiment: Inhibition of IRAK4 (unknown origin)
[3] = Cmax in C57BL/6 mouse at 10 mg/kg, po by LC-MS/MS analysis; format: ADME, organism-based; set-up: dose 10 mg/kg, route po; conditions: in vivo
[4] = molecular target: Insulin-like growth factor 1 receptor (Homo sapiens, UniProt P08069); experiment: Inhibition of IGF1R (unknown origin)
[5] = molecular target: Tyrosine-protein kinase BTK (Homo sapiens, UniProt Q06187); experiment: Inhibition of BTK (unknown origin)
[6] = molecular target: Tyrosine-protein kinase SYK (Homo sapiens, UniProt P43405); experiment: Inhibition of SYK (unknown origin)
[7] = molecular target: Platelet-derived growth factor receptor beta (Homo sapiens, UniProt P09619); experiment: Inhibition of PDGFR-beta (unknown origin)
[8] = Thermodynamic aqueous solubility of the compound at pH 1 incubated for 18 to 24 hrs by HPLC-UV analysis; format: physicochemical; conditions: aqueous medium, time 18-24 hrs, read-out: Therm_solubility
[9] = molecular target: Mitogen-activated protein kinase 14 (Homo sapiens, UniProt Q16539); experiment: Inhibition of MAPK p38-alpha (unknown origin)
Sequence of Mitogen-activated protein kinase 14 (Q16539 whole entry): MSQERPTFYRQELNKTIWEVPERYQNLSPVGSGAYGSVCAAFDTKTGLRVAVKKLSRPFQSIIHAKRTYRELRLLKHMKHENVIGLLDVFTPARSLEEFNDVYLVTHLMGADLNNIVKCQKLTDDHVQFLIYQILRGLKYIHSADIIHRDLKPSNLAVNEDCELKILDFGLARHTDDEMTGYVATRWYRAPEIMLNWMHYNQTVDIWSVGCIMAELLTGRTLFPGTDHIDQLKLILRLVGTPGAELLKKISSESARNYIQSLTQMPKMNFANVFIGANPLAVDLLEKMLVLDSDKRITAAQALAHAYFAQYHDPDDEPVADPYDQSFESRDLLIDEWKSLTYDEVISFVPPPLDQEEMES

[10] = molecular target: AP2-associated protein kinase 1 (Homo sapiens, UniProt Q2M2I8); experiment: Inhibition of AAK1 (unknown origin)
[11] = molecular target: Non-receptor tyrosine-protein kinase TYK2 (Homo sapiens, UniProt P29597); experiment: Inhibition of TYK2 (unknown origin)
[12] = molecular target: Glycogen synthase kinase-3 beta (Homo sapiens, UniProt P49841, H355L); experiment: Displacement of FL-KRREILSRRP[ps]ERYR-NH2 from human recombinant N-terminal His6-tagged GSK-3-beta (14 to 306 residues) H355L mutant expressed in baculovirus-infected Sf21 cells incubated for 20 hrs by fluorescence based analysis
[13] = molecular target: Interleukin-1 receptor-associated kinase 1 (Homo sapiens, UniProt P51617); experiment: Inhibition of IRAK1 (unknown origin)
[14] = molecular target: Tyrosine-protein kinase Lck (Homo sapiens, UniProt P06239); experiment: Inhibition of LCK (unknown origin)
[15] = Ratio of unbound drug concentration in mouse brain to plasma at 10 uM incubated for 5 hrs by equilibrium dialysis method; format: ADME, cell-free; conditions: read-out: K(p,uu,brain)
[16] = Permeability of the compound at 100 uM incubated for 4 hrs at pH 7.4 by PAMPA assay; format: ADME; conditions: read-out: permeability
[17] = Protein binding in mouse brain assessed as unbound fraction at 1 uM incubated for 4 hrs by LC-MS analysis; format: ADME, tissue-based
[18] = Metabolic stability in mouse liver microsomes assessed as parent compound remaining at 0.5 uM measured after 10 mins in presence of NADPH by LC-MS/MS analysis; format: ADME, Microsome; conditions: read-out: Stability
[19] = Protein binding in rat plasma assessed as unbound fraction at 10 uM incubated for 5 hrs by equilibrium dialysis method; format: ADME, cell-free
Aurora kinase A = Aurora kinase A (Mus musculus, UniProt P97477); experiment: Inhibition of mouse Aurora kinase A
Sequence of Aurora kinase A (P97477 whole entry): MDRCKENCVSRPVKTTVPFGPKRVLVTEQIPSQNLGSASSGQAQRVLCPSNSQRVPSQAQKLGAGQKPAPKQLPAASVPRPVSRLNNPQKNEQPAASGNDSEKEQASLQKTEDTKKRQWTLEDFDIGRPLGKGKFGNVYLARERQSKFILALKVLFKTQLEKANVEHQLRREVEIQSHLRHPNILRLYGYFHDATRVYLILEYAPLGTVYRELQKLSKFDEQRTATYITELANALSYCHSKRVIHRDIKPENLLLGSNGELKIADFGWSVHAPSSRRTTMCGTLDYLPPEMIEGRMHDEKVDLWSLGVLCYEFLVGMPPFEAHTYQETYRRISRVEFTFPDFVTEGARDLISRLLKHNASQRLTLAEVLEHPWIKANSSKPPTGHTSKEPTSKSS

[20] = Plasma concentration in LaFerla 3x transgenic Alzheimer's disease C57BL/6 mouse model at 10 mg/kg, po measured after 5 hrs; format: ADME, organism-based
[21] = molecular target: Casein kinase II subunit alpha' (Homo sapiens, UniProt P19784); experiment: Inhibition of CK2A2 (unknown origin)
[22] = Metabolic stability in human liver microsomes assessed as parent compound remaining at 0.5 uM measured after 10 mins in presence of NADPH by LC-MS/MS analysis; format: ADME, Microsome; conditions: read-out: Stability
[23] = Oral bioavailability in C57BL/6 mouse at 10 mg/kg by LC-MS/MS analysis; format: ADME, organism-based; conditions: in vivo
[24] = Ratio of drug concentration in brain to plasma in LaFerla 3x transgenic Alzheimer's disease C57BL/6 mouse model at 10 mg/kg, po measured after 5 hrs; format: ADME, organism-based; conditions: read-out: BPR
[25] = molecular target: Cyclin-dependent kinase 2 (Homo sapiens, UniProt P24941); experiment: Inhibition of CDK2 (unknown origin)
[26] = Clearance in C57BL/6 mouse at 2 mg/kg, iv by LC-MS/MS analysis; format: ADME, organism-based; conditions: in vivo
[27] = molecular target: Casein kinase II subunit alpha (Homo sapiens, UniProt P68400); experiment: Inhibition of CK2A1 (unknown origin)
[28] = Volume of distribution at steady state in C57BL/6 mouse at 2 mg/kg, iv by LC-MS/MS analysis; format: ADME, organism-based; conditions: in vivo, read-out: Vdss
[29] = molecular target: Glycogen synthase kinase-3 (Homo sapiens, UniProt P49840+P49841); experiment: Inhibition of GSK-3 in human U2OS cells transfected with beta-catenin GFP and 4R1N tau plasmid assessed as inhibition of Tau phosphorylation at Ser396 residues by high-content imaging assay; format: cell-based
[30] = molecular target: Serine/threonine-protein kinase pim-1 (Homo sapiens, UniProt P11309); experiment: Inhibition of PIM1 (unknown origin)
Sequence of Serine/threonine-protein kinase pim-1 (P11309 whole entry): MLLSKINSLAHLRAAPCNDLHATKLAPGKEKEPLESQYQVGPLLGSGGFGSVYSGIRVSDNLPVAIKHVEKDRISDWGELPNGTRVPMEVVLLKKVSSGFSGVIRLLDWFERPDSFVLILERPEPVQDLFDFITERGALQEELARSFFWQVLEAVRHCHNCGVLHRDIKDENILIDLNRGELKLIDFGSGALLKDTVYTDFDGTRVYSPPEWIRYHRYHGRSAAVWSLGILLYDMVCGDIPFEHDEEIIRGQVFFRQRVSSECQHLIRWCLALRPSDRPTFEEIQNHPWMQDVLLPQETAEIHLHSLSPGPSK

[31] = Protein binding in mouse plasma assessed as unbound fraction at 10 uM incubated for 5 hrs by equilibrium dialysis method; format: ADME, cell-free
[32] = molecular target: Cyclin-dependent kinase 5 (Homo sapiens, UniProt Q00535); experiment: Inhibition of CDK5 (unknown origin)
Sequence of Cyclin-dependent kinase 5 (Q00535 whole entry): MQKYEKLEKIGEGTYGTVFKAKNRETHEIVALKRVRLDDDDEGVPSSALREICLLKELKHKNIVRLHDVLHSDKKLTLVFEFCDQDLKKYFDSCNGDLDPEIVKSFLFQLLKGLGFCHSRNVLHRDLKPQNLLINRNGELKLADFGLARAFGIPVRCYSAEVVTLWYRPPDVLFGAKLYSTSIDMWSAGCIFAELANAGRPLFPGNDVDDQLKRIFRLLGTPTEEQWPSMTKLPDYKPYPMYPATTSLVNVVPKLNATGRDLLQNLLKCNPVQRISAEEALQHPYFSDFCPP

[33] = molecular target: Tyrosine-protein kinase JAK2 (Homo sapiens, UniProt O60674); experiment: Inhibition of JAK2 (unknown origin)
Sequence of Tyrosine-protein kinase JAK2 (O60674 whole entry): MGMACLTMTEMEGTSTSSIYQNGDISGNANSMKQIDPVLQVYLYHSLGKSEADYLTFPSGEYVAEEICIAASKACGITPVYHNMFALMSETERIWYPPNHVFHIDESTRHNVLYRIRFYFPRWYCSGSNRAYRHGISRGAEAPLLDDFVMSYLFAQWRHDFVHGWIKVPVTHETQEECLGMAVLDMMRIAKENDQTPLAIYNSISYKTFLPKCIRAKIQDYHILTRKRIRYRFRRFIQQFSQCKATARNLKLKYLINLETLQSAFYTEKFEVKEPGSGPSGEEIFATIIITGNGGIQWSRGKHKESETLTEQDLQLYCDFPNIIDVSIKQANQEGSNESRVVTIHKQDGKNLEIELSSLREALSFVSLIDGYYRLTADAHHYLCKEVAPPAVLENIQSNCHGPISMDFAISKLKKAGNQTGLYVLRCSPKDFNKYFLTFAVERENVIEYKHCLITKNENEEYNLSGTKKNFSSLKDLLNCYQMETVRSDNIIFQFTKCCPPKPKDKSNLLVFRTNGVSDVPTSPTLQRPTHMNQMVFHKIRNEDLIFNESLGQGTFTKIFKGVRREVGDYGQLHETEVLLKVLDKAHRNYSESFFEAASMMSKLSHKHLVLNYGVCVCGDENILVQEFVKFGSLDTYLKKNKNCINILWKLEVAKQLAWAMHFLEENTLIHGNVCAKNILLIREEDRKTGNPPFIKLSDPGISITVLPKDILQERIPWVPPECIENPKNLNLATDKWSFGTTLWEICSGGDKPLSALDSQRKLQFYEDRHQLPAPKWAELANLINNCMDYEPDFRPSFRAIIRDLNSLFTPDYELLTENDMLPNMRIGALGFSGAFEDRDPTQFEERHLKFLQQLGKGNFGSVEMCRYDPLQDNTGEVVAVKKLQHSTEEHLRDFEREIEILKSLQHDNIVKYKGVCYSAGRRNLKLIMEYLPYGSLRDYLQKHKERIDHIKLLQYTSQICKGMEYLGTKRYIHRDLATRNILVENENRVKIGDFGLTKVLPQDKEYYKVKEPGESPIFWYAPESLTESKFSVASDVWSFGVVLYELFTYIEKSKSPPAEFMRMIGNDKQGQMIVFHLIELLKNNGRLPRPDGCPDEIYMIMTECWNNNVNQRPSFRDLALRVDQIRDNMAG

Aurora kinase B = Aurora kinase B (Homo sapiens, UniProt Q96GD4); experiment: Inhibition of Aurora kinase B (unknown origin)
[34] = Thermodynamic aqueous solubility of the compound at pH 7.4 incubated for 18 to 24 hrs by HPLC-UV analysis; format: physicochemical; conditions: aqueous medium, time 18-24 hrs, read-out: Therm_solubility
[35] = Protein binding in human plasma assessed as unbound fraction at 10 uM incubated for 5 hrs by equilibrium dialysis method; format: ADME, cell-free
[36] = AUC (total) in C57BL/6 mouse at 10 mg/kg, po by LC-MS/MS analysis; format: ADME, organism-based; set-up: dose 10 mg/kg, route po; conditions: in vivo
[37] = Permeability of the compound from apical to basolateral side in human Caco-2 cells at 3 uM incubated for 2 hrs by LC-MS/MS analysis; format: ADME, cell-based; conditions: read-out: permeability
[38] = Drug uptake in brain of LaFerla 3x transgenic Alzheimer's disease C57BL/6 mouse model at 10 mg/kg, po measured after 5 hrs; format: ADME, organism-based; conditions: read-out: Drug uptake
[39] = Permeability of the compound at 100 uM incubated for 4 hrs at pH 5.5 by PAMPA assay; format: ADME; conditions: read-out: permeability
[40] = MRT in C57BL/6 mouse at 2 mg/kg, iv by LC-MS/MS analysis; format: ADME, organism-based; conditions: in vivo
Mus musculus = experiment: Anti-alzheimer activity against LaFerla 3x transgenic Alzheimer's disease C57BL/6 mouse model assessed as reduction in tau phosphorylation at Ser396 residue in brain at 10 mg/kg, po measured after 5 hrs by ELISA; format: functional
[41] = Permeability of the compound from basolateral to apical side in human Caco-2 cells at 3 uM incubated for 2 hrs by LC-MS/MS analysis; format: ADME, cell-based; conditions: read-out: permeability
[42] = molecular target: Glycogen synthase kinase-3 alpha (Homo sapiens, UniProt P49840); experiment: Displacement of FL-KRREILSRRP[ps]ERYR-NH2 from human recombinant full length GST-tagged GSK-3-alpha expressed in insect cells incubated for 20 hrs by fluorescence based analysis; set-up: species or system Insect cell
Sequence of Glycogen synthase kinase-3 alpha (P49840 whole entry): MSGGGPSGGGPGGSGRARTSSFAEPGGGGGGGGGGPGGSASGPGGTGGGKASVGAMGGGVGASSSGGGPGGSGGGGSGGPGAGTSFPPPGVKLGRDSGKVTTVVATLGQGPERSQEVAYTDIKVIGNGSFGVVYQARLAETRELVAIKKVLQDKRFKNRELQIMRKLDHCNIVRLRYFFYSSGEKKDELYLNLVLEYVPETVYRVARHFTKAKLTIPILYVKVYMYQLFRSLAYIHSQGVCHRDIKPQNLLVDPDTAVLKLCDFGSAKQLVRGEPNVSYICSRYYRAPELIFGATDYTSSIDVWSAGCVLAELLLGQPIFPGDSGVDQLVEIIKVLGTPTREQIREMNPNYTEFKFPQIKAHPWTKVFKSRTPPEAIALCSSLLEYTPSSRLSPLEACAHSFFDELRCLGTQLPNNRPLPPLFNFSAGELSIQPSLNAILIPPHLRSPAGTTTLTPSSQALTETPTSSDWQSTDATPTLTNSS

[43] = molecular target: MAP kinase-activated protein kinase 2 (Homo sapiens, UniProt P49137); experiment: Inhibition of MK2 (unknown origin)
[44] = molecular target: Protein kinase C theta type (Homo sapiens, UniProt Q04759); experiment: Inhibition of PKC theta (unknown origin)
[45] = Half life in C57BL/6 mouse at 2 mg/kg, iv by LC-MS/MS analysis; format: ADME, organism-based; conditions: in vivo
[46] = molecular target: Mast/stem cell growth factor receptor Kit (Homo sapiens, UniProt P10721); experiment: Inhibition of c-Kit (unknown origin)
Sequence of Mast/stem cell growth factor receptor Kit (P10721 whole entry): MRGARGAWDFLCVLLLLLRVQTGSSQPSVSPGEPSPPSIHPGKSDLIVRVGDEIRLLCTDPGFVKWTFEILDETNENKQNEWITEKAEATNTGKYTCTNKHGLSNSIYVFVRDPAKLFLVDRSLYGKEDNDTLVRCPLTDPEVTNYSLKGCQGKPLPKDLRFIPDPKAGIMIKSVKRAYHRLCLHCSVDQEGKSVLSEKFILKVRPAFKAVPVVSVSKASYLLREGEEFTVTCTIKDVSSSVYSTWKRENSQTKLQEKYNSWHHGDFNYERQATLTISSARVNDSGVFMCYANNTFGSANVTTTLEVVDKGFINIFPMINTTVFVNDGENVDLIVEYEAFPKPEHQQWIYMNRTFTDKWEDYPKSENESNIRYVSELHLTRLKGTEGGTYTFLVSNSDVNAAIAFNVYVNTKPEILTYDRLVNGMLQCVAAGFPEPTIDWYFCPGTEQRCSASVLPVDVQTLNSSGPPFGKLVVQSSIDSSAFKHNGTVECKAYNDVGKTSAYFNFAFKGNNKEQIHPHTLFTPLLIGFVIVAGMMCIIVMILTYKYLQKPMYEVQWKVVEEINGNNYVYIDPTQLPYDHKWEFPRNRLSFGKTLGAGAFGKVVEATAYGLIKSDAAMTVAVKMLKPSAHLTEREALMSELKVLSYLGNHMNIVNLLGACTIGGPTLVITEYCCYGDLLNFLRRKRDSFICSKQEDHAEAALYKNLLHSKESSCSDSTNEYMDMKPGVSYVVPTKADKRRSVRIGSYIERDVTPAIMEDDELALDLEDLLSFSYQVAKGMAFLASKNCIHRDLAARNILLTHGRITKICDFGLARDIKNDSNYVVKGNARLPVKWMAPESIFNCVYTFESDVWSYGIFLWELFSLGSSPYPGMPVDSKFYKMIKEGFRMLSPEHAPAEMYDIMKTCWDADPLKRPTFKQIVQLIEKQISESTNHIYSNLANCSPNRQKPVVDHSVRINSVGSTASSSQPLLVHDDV

[47] = molecular target: Tyrosine-protein kinase JAK1 (Homo sapiens, UniProt P23458); experiment: Inhibition of JAK1 (unknown origin)
[48] = molecular target: Ribosomal protein S6 kinase alpha-1 (Homo sapiens, UniProt Q15418); experiment: Inhibition of RSK1 (unknown origin)
Sequence of Ribosomal protein S6 kinase alpha-1 (Q15418 whole entry): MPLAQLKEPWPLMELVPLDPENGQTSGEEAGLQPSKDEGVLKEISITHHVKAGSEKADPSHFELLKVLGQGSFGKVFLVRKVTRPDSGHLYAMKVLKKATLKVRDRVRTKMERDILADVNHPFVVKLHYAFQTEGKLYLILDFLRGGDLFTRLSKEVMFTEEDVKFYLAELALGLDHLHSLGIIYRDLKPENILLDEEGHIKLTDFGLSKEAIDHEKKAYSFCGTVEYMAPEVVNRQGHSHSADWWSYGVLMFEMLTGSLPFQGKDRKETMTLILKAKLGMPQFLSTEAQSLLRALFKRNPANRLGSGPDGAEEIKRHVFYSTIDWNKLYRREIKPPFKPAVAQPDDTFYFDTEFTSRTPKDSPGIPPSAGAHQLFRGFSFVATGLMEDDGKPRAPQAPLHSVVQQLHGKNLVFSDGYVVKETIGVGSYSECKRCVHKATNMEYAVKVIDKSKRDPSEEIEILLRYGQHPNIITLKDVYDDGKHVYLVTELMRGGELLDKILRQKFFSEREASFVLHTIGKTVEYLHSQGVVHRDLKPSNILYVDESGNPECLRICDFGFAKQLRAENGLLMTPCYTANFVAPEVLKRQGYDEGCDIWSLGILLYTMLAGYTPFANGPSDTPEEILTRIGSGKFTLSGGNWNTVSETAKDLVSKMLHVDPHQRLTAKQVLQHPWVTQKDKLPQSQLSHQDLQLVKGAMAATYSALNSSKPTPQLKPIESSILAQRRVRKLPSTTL

[49] = Metabolic stability in rat liver microsomes assessed as parent compound remaining at 0.5 uM measured after 10 mins in presence of NADPH by LC-MS/MS analysis; format: ADME, Microsome; conditions: read-out: Stability

Sequence of Casein kinase I isoform alpha (P48729 whole entry, canonical isoform): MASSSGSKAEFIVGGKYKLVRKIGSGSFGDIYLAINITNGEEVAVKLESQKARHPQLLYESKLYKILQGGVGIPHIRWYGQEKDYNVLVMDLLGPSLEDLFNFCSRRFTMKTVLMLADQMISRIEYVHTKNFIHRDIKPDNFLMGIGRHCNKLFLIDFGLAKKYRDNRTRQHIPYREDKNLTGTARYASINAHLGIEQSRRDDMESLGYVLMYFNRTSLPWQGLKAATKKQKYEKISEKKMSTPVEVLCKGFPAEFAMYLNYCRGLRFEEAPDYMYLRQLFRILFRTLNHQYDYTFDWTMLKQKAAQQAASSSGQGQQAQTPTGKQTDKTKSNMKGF

N#Cc1ccc(Nc2nccc(C(=O)Nc3cnccc3-c3ccc(F)cc3)n2)cc1
IC50 [1]: > 2 µM | IC50 [2]: > 50 µM | Cmax [3]: 3500 nM | IC50 [4]: 17 µM | IC50 [5]: 13 µM | IC50 [6]: > 50 µM | IC50 [7]: 37 µM | solubility thermodynamic [8]: 16 µg/mL (≈ 39 µM) | IC50 [9]: 23 µM | IC50 [10]: > 2 µM | IC50 [11]: > 50 µM | IC50 [12]: 0.00035 µM | IC50 [13]: > 2 µM | IC50 [14]: > 2 µM | Kp uu at 5 h, 10 µM [15]: 0.4 | Papp at 4 h, 100 µM [16]: 84 ×10⁻⁶ cm/s | fraction unbound at 4 h, 1 µM [17]: 0.012 | remaining at 10 min, 0.5 µM [18]: 66% | fraction unbound at 5 h, 10 µM [19]: 0.019 | IC50 (Aurora kinase A): 17 µM | concentration at 5 h [20]: 410 nM | IC50 [21]: > 2 µM | remaining at 10 min, 0.5 µM [22]: 79% | bioavailability [23]: 100% | Kp at 5 h [24]: 0.9 | IC50 [25]: 0.22 µM | clearance [26]: 23.3 mL/min/kg | IC50 [27]: > 50 µM | Vd [28]: 5.4 L/kg | IC50 [29]: 0.01 µM | IC50 [30]: 0.72 µM | fraction unbound at 5 h, 10 µM [31]: 0.03 | IC50 [32]: 1.3 µM | IC50 [33]: 13 µM | IC50 (Aurora kinase B): 11 µM | solubility thermodynamic [34]: < 1 µg/mL | fraction unbound at 5 h, 10 µM [35]: 0.011 | AUC [36]: 24.3 µM·h | Papp A→B at 2 h, 3 µM [37]: 24.4 ×10⁻⁶ cm/s | concentration at 5 h [38]: 370 nM | Papp at 4 h, 100 µM [39]: 121 ×10⁻⁶ cm/s | MRT [40]: 3.9 h | inhibition in vivo at 10 mg/kg (Mus musculus): 33% | Papp B→A at 2 h, 3 µM [41]: 9.8 ×10⁻⁶ cm/s | IC50 [42]: 0.00025 µM | IC50 [43]: > 50 µM | IC50 [44]: 17 µM | half-life [45]: 2.5 h | IC50 [46]: 5.6 µM | IC50 [47]: 31 µM | IC50 [48]: > 50 µM | remaining at 10 min, 0.5 µM [49]: 66%
